For assay [1], the system named is Bt and Bi fecal community. Description: Competitive colonization of gnotobiotic mice biassociated with Bt and B. infantis, LNnT in the water. It counts as in vivo, germ-free Swiss-Webster mice. As for the experimental part:
Two groups of 6-week-old germ-free mice were fed a polysaccharide-deficient diet, forcing a reliance on host mucus glycans for carbon and energy. One group received LNnT supplementation in the water (1% w/v; average consumption of 75 mg of LNnT daily), the control group received plain water.
After one day of LNnT feeding, both groups were colonized with equivalent quantities of Bt and Bi (10^8 CFU each). At day 6 post-inoculation, the group receiving LNnT was switched to normal water; at day 15 post-inoculation, LNnT was readministered for 3 additional days. Total bacterial colonization density was determined by assessing the CFUs in feces over the course of the 18 day experiment. […] LNnT supplementation was withdrawn on day 6 and colonization density was determined on days 7, 8, 9, 12, and 15 post colonization (1, 2, 3, 6, and 9 days after removing LNnT from the water). […] At day 3 post withdrawal of LNnT, Bi representation was 3.9±0.2% compared to 41.5±6.4% just prior to withdrawal (p=0.006, day 6 versus day 9, n=4 mice). LNnT was reintroduced into the water on day 15, and bacterial colonization was monitored at days 16, 17, and 18 post colonization. Two days after LNnT reintroduction, Bi expanded from 0.5±0.5% at day 15 to 49.9±2% at day 17 (p=0.012, day 15 versus day 17, n=4 mice). By day 18, Bi represented 25.9±9.6% of the community in LNnT-fed mice, compared to 1.9±1.5% in the control group (p=0.014, n=4 mice) (FIG. 16C).
Competitive Colonization of Gnotobiotic Mouse. Germ-free Swiss-Webster mice were reared in gnotobiotic isolators and fed an autoclaved polysaccharide-deficient diet in accordance with A-PLAC, the Stanford IACUC. Mice were biassociated using oral gavage (10^8 CFU of each species). Subsequent community enumerations from mice were determined from freshly collected feces, by selective plating of serial dilutions in RCM agar and BHI-blood agar supplemented with gentamicin ([…]). Significant differences between sample groups were determined using Student's t test. Synthetic LNnT (Glycom A/S, Denmark) was purified by crystallization to a final purity of >99%. Characterization was performed using multiple methods, including NMR (1D and 2D) mass spectrometry, and HPLC.

Assay [2] has as its system Bacteroides thetaiotaomicron (Bt). The experiment in a line: In vitro growth of Bt in minimal medium with the glycan as sole carbohydrate (OD600). The note with it: glycan 1.5% w/v as sole carbon source. It counts as cell-based. Here is the method: The transcriptome was analyzed near the midpoints of the two logarithmic growth phases in MM-HMO (n=2 biological replicates/growth phase, four datasets total). As a baseline for comparison, we used previously reported in vitro datasets of Bt grown in MM-glucose. […] Within these combined 253 genes (132 were commonly up regulated in both phases), 137 genes had ≧5-fold change in expression when compared to MM-glucose (see Table S1 for complete list of genes).
(§1) Bacterial Strains and Culture conditions. Type strains for Bacteroides species were used unless otherwise indicated. Bacteroides species were grown in tryptone-yeast extract-glucose (TYG) medium and minimal medium (MM) as described previously. Bif. infantis was grown in Man-Rogosa-Sharpe (MRS) medium (Oxoid LTD., Basingstoke, Hampshire, England) and minima medium consisting of modified MRS, which lacks glucose. […] OD600 was monitored using a BioTek PowerWave 340 plate reader (BioTek, Winoosky, Vt., United States) every 30 min, at 37° C. anaerobically (6% H2, 20% CO2, 74% N2).
Bacterial Strains and Culture Conditions. Type strains were used unless otherwise indicated. Bacteroides species were grown in tryptone-yeast extract-glucose (TYG) medium and minimal medium (MM). […] OD600 was monitored using a BioTek PowerWave 340 plate reader (BioTek, Winooski, Vt.) every 30 min, at 37_C anaerobically (6% H2, 20% CO2, 74% N2).

The test system of the next assay is Bif. infantis ATCC15697. Description: In vitro growth of Bif. infantis in minimal medium with the glycan as carbon source. The format is cell-based, Bifidobacterium longum subsp. infantis. The note with it: minimal medium (modified MRS without glucose) with the glycan. As for the experimental part:
We next queried whether the redundancy in machinery employed for mucin and HMO consumption in Bt is also found in Bifidobacterium species that are well-adapted to HMO use. Therefore, we grew a strain known to be proficient at HMO-use, Bif. infantis ATCC15697 in MM-O-PMG.
as §1
B. thetaiotaomicron and Bifidobacterium infantis Differentially Consume the Structurally Similar Mucin Glycans and HMO. […] We grew an HMO-consuming Bifidobacterium strain that is abundant in the microbiota of breast-fed infants, Bi, in purified porcine mucin glycans (MM-O-PMG) to elucidate its competence in mucin consumption. […]
Bacterial Strains and Culture Conditions. […] OD600 was monitored using a BioTek PowerWave 340 plate reader (BioTek, Winooski, Vt.) every 30 min, at 37_C anaerobically (6% H2, 20% CO2, 74% N2).

In another assay the test system is Bt. The experiment in a line: Sialic acid content determination in MM-HMO after Bt growth. The format is cell-based, Bacteroides thetaiotaomicron. As for the experimental part:
Twelve of the 21 HMO-specific Bf genes were distributed within two loci that are dedicated to sialic acid acquisition and catabolism (FIG. 16B). […] To confirm that Bf does in fact consume sialic acids from HMOs, sialic acid content in the MM-HMO after growth was measured before and after acid hydrolysis using derivatization with 1,2-diamino-4,5-methylenedioxybenzene followed by reverse phase HPLC.
(§2) Sialic Acid Content Determination. Culture supernatant was isolated after growth in MM-HMO and clarified by centrifugation and filtration. Sialic acid concentrations were determined by the Glycotechnology Core Facility UCSD (University of California, San Diego, San Diego, Calif.), using the […] DMB labeling kit protocol (Prozyme, San Leandro, Calif.).

For the next assay, the system named is B. fragilis. Description: Sialic acid content determination in MM-HMO after B. fragilis growth (DMB derivatization, RP-HPLC). It counts as cell-based, Bacteroides fragilis. As for the experimental part: Ten of the 21 genes in the HMO-specific B. fragilis response were distributed within two loci that are dedicated to sialic acid acquisition and catabolism (FIG. 6B).
Sialic acid content determination. B. fragilis culture supernatant was isolated after growth in MM-HMO and clarified by centrifugation and filtration. Sialic acid concentrations were determined by the Glycotechnology Core Facility UCSD (University of California, San Diego, Calif., United States). Briefly, sialic acids were released by acid hydrolysis at 80 C for 3 hours in 2M acetic acid, collected by ultra-filtration, and derivatized with DMB (1,2-diamino-4,5-methylenedioxybenzene). The resulting fluorescent sialic acids derivatives were analyzed by RP-HPLC with on-line fluorescence detection, and identification was based on standards run in parallel.
as §2

Another assay concerns Bt VPI-5482 genes / PULs. Description: Whole genome transcriptional profiling of Bt (GeneChip) relative to MM-glucose. It counts as cell-based, Bacteroides thetaiotaomicron. The note with it: compared to MM-glucose.

From patent US8795746B2, “Therapeutic use of mucin glycans” (The Board of Trustees of the Leland Stanford Junior …, priority 2011, dated 2014) come the findings set out here.

Method for Bt VPI-5482 genes / PULs: We grew Bt in minimal medium (MM) containing HMO (1.5% w/v) as the sole carbohydrate to investigate if this strain consumes human milk glycans in vitro. […] Next, we defined the transcriptional response of Bt during HMO consumption using whole genome transcriptional profiling with a custom Bt VPI-5482 GeneChip that represent >98% of this organism's protein coding genes. The transcriptome was analyzed near the midpoints of the two logarithmic growth phases in MM-HMO (n=2 biological replicates/growth phase, four datasets total). As a baseline for comparison, we used previously reported in vitro datasets of Bt grown in MM-glucose.
We wished to identify which portion of the observed Bt transcriptional response in MM-HMO was due to the complex oligosaccharides versus simple core sugars, lactose and galactose. Therefore, we performed transcriptional profiling of Bt grown in MM-galactose and MM-lactose (n=2 mid-log phase datasets for each of these monophasic growths; see FIG. 8 for growth curves and sampling timepoints).
Whole Genome Transcriptional Profiling. […] GeneChip data from bacteria growth in different carbon sources were normalized using R program by RMA-MS and statistical significance for differential gene expression was determined using SAM [45]. […]

For `CC(=O)N[C@H]1[C@H](O[C@H]2[C@@H](O)[C@@H](CO)O[C@@H](O[C@H]3[C@H](O)[C@@H](O)C(O)O[C@@H]3CO)[C@@H]2O)O[C@H](CO)[C@@H](O[C@@H]2O[C@H](CO)[C@H](O)[C@H](O)[C@H]2O)[C@@H]1O` (mixture of isomers) [LNnT, lacto-N-neotetraose], the “time for Bi to drop to levels similar to controls after removal of LNnT” value in assay [1] (LNnT withdrawn on day 6) is at most 2 days. Also, the “Bi relative to Bt in fecal community” value in assay [1] (day 6, LNnT 1% w/v in water, polysaccharide-deficient diet) worked out at 41.5±6.4%. The Bi representation was determined as 3.9±0.2% in assay [1] (day 9, day 3 post withdrawal of LNnT); 0.5±0.5% in assay [1] (day 15, before LNnT reintroduction); 49.9±2% in assay [1] (day 17, two days after LNnT reintroduction). Also, in assay [1] (day 18, LNnT-fed mice), the “Bi share of the community” value amounted to 25.9±9.6%. Also, the “growth of Bt” value in assay [2] is listed as “did not”. For the same molecule, in the assay with Bif. infantis ATCC15697, the “growth of Bif. infantis” value was “grew efficiently reaching a high OD”.
Consider `CC(=O)N[C@H]1[C@H]([C@H](O)[C@H](O)CO)OC(O)(C(=O)O)C[C@@H]1O` (stereo partly drawn) [Neu5Ac, N-acetylneuraminic acid], for which the “Neu5Ac use by Bt” value in the assay with Bt is “unable to catabolize it”. In addition, the “Neu5Ac content after B. fragilis growth” value in the assay on B. fragilis was “completely depleted”.
Regarding `O=C[C@H](O)[C@@H](O)[C@@H](O)[C@H](O)CO` [galactose], the “number of Bt genes up regulated at least 5-fold” value in the assay on Bt VPI-5482 genes / PULs is 40 genes.
For the molecule `OC[C@H]1O[C@@H](O[C@H]2[C@H](O)[C@@H](O)C(O)O[C@@H]2CO)[C@H](O)[C@@H](O)[C@H]1O` (stereo partly drawn) [lactose], the “number of Bt genes up regulated at least 5-fold” value with Bt VPI-5482 genes / PULs stood at 34 genes.
